US20160061841A1, “NRF2-BASED CANCER TREATMENT AND DETECTION METHODS AND USES” (CanBas Co., Ltd., priority 2014, published 2016)
Entries after “also recorded” stand apart in the source; their conditions may differ. Like-named read-outs stand apart in the source and are kept apart here.

Assays:
[1] = system: H1703 Control (Ctrl)-sh and Nrf2-sh sub-lines; test: Cell cycle distribution after SFN, CDDP and CBP501 in H1703 Ctrl-sh and Nrf2-sh sub-lines; assay type: cell-based, Human; conditions: SFN 24 h prior to 1 h CDDP (2.5 μg/ml)/CBP501 (1 μM)
Method: FIGS. 4C, 4D show Analysis of cell cycle distribution changes by using Flow-cytometry (n=4). SFN was subjected 24h to H1703 Control (Ctrl)-sh and Nrf2-sh sub-lines prior to lh treatment of CDDP (2.5 μg/m1)/CBP501 (1 μM). (FIG. 4C) Whole cell cycle distribution. (FIG. 4D) G2-M phase. An asterisk indicates statistical significance (TTEST; p<0.005). Error bars signify standard deviations as determined from four flowcytometric analyses.
Cell cycle analysis. Cells were plated in 24-well plates and incubated for 24 hours. The cells were treated with or without CDDP plus or minus CBP501 at the indicated concentration for the indicated times. The cells were harvested and stained with Krishan's solution (0.1% sodium citrate, 50 μg/ml propidium iodide, 20 μg/ml RNase A, 0.5% NP-40). Stained cells were analyzed by FACSCalibur (Becton Dickinson, Franklin Lakes, N.J.) using CELLQuest software (Becton Dickinson).
Lentivirus infection. Nrf2 shRNA lentivirus particles and Control shRNA lentivirus particles were purchased from SantaCruz. Lentivirus infection was performed according to manufacturer's instructions. Cells (50% confluence) were treated with 5 μg/ml Polybrene (SantaCruz) prior to virus infection. One day after addition of virus, the cells were transferred to fresh medium and cells were selected by treatment with Puromycin (SantaCruz). […]

Nrf2 = conditions: Western blot

## C[S+]([O-])CCCCN=C=S (stereo not shown) [SFN, Sulforaphane]
[1]; H1703 Nrf2 knock-down
  Effect of SFN on CBP501's effect (cell cycle distribution, G2-M): the effect of SFN was abrogated
[1]; H1703 control shRNA
  Effect of SFN on CBP501's effect (cell cycle distribution, G2-M): attenuated CBP501's effect; also recorded: cancels the effect of CBP501
Nrf2; H1703 cells transfected with Nrf2 shRNA
  Nrf2 protein levels: did not cause a similar increase
Nrf2; H1703 cells transfected with control shRNA
  Nrf2 protein levels: increase in a dose dependent manner
